Among the data in doi:10.1101/2024.08.19.608619, “Discovery of potent SARS-CoV-2 nsp3 macrodomain inhibitors uncovers lack of translation to cellular antiviral response” (bioRxiv, 2024) are remaining activity and logd values, retold here.

Read-outs that look alike come from different tables or passages of the source.

The target of one series is T1, LOK(h) (Homo sapiens, UniProt O94804).
T1 construct: gene STK10
The series is described as follows: biochemical. Also on record: In vitro kinase panel profiling, per cent remaining kinase activity at 10 uM. The conditions noted are these: atp_concentration=120, read-out: % of control remaining. From the text:
(§1) We derisk potential for off-target activity by profiling the compound in a CEREP panel, a standard secondary pharmacology assessment, as well as a kinase panel to derisk a potential hinge-binding motif in our leads, and a PARP panel to derisk activity against human […]. Reassuringly, the compounds are selective, with the only off-targets being moderate human CHRM2 and KOR receptors activity associated with ASAP-0011198.

For a further series, the target named is T2, p70S6K(h) (Homo sapiens, UniProt P23443).
T2 construct: gene RPS6KB1
T2 sequence (P23443 whole entry): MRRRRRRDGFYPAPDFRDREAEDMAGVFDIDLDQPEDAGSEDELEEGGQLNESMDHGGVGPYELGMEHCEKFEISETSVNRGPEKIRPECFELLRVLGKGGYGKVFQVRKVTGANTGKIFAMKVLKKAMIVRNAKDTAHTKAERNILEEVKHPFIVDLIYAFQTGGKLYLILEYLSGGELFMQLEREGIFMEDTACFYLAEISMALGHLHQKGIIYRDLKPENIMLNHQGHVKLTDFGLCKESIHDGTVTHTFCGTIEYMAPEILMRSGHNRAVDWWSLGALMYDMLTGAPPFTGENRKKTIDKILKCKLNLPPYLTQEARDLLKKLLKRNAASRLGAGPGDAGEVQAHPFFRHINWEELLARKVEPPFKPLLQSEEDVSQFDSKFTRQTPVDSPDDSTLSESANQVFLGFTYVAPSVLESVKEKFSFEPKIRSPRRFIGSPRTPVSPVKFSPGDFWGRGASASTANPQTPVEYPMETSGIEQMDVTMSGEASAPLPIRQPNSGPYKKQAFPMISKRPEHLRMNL
The series is described as follows: biochemical. Also on record: In vitro kinase panel profiling, per cent remaining kinase activity at 10 uM. The conditions noted are these: atp_concentration=15, read-out: % of control remaining.
Text: as §1

Another series addresses EGFR(h) (Homo sapiens, UniProt P00533). The series is described as follows: biochemical. Also noted: In vitro kinase panel profiling, per cent remaining kinase activity at 10 uM. As to conditions: atp_concentration=10, read-out: % of control remaining.
Text: as §1

A further series concerns the target CDK2/cyclinA(h) (Homo sapiens, UniProt P24941). Nature of the series: biochemical. Also on record: In vitro kinase panel profiling, per cent remaining kinase activity at 10 uM. The conditions noted are these: atp_concentration=45, read-out: % of control remaining.
Text: as §1

The next series addresses JAK2(h) (Homo sapiens, UniProt O60674). Nature of the series: biochemical. The conditions noted are these: atp_concentration=45, read-out: % of control remaining. Also noted: In vitro kinase panel profiling, per cent remaining kinase activity at 10 uM.
Text: as §1

In a further series the target is T3, PDGFRβ(h) (Homo sapiens, UniProt P09619).
T3 construct: gene PDGFRB
T3 sequence (P09619 whole entry): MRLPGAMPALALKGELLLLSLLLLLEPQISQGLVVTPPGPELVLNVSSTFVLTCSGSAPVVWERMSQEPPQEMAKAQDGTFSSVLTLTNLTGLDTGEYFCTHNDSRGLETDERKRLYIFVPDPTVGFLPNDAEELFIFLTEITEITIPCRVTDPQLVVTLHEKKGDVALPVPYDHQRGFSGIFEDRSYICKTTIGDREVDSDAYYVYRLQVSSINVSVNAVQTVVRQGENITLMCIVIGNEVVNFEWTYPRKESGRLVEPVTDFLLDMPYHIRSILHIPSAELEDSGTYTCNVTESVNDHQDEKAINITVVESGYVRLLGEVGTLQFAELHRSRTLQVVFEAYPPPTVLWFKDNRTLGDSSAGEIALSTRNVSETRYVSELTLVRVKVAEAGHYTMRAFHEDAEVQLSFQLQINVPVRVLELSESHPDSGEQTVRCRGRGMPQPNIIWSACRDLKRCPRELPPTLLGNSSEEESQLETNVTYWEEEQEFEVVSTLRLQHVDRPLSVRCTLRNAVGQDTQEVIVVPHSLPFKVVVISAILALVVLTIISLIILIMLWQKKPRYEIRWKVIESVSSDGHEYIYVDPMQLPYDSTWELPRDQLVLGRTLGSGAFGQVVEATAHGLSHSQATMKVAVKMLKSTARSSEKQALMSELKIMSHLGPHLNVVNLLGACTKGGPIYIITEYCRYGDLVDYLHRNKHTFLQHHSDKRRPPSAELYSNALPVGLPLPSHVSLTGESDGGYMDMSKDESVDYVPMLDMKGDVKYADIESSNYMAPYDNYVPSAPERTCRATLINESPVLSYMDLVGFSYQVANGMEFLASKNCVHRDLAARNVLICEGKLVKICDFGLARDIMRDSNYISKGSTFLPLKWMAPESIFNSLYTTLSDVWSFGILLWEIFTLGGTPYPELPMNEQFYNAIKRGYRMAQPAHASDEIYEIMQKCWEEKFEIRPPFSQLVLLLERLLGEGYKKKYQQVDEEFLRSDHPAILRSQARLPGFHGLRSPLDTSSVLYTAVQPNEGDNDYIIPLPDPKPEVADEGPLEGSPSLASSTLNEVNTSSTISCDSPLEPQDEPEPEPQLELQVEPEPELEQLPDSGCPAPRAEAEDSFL
The series is described as follows: biochemical. Also noted: In vitro kinase panel profiling, per cent remaining kinase activity at 10 uM. The conditions noted are these: atp_concentration=200, read-out: % of control remaining.
Text: as §1

The target of another series is T4, CaMKI(h) (Homo sapiens, UniProt Q14012).
T4 construct: gene CAMK1
T4 sequence (Q14012 whole entry): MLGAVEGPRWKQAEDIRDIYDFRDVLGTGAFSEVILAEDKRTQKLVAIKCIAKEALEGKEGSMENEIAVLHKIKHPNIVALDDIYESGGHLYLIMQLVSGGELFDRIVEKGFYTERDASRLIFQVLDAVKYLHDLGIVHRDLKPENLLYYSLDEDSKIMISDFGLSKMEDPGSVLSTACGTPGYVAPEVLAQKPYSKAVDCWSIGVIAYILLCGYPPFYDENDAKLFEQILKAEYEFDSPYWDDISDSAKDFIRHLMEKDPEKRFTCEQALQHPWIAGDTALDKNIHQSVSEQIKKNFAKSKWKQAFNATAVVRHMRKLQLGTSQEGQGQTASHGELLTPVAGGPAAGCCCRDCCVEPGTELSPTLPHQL
Nature of the series: biochemical. Also on record: In vitro kinase panel profiling, per cent remaining kinase activity at 10 uM. The conditions noted are these: atp_concentration=200, read-out: % of control remaining.
Text: as §1

A further series has as its target CDK9/cyclin T1(h) (Homo sapiens, UniProt P50750). The series is described as follows: biochemical. Also noted: In vitro kinase panel profiling, per cent remaining kinase activity at 10 uM. The conditions noted are these: atp_concentration=45, read-out: % of control remaining.
Text: as §1

The next series addresses T5, CHK1(h) (Homo sapiens, UniProt O14757).
T5 construct: gene CHEK1
T5 sequence (O14757 1-476): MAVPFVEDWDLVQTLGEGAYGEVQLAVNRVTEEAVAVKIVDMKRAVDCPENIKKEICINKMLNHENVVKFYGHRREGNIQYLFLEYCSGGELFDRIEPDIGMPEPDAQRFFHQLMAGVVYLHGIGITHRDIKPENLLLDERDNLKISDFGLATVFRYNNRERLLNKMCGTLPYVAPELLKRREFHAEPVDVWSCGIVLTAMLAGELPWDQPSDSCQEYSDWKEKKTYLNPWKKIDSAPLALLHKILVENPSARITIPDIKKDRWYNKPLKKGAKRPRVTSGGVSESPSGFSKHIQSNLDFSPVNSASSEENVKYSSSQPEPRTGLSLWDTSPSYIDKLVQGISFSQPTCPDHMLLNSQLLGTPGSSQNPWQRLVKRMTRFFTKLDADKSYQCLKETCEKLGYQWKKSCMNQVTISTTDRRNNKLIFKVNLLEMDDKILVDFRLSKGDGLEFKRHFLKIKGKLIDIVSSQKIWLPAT
The series is described as follows: biochemical. Also noted: In vitro kinase panel profiling, per cent remaining kinase activity at 10 uM. As to conditions: atp_concentration=90, read-out: % of control remaining.
Text: as §1

The target in another series is ALK(h) (Homo sapiens, UniProt Q9UM73). Nature of the series: biochemical. Also noted: In vitro kinase panel profiling, per cent remaining kinase activity at 10 uM. As to conditions: atp_concentration=200, read-out: % of control remaining.
Text: as §1

For series [1], the target named is T6, PI3 Kinase (p110δ/p85α)(h) (Homo sapiens, UniProt O00329).
T6 construct: gene PIK3CD
Nature of the series: biochemical. As to conditions: atp_concentration=200, read-out: % of control remaining. Also noted: In vitro kinase panel profiling, per cent remaining kinase activity at 10 uM.
Text: as §1

Another series concerns the target Plk3(h) (Homo sapiens, UniProt Q9H4B4). Nature of the series: biochemical. As to conditions: atp_concentration=70, read-out: % of control remaining. Also on record: In vitro kinase panel profiling, per cent remaining kinase activity at 10 uM.
Text: as §1

Another series deals with KDR(h) (Homo sapiens, UniProt P35968). Nature of the series: biochemical. Also on record: In vitro kinase panel profiling, per cent remaining kinase activity at 10 uM. The conditions noted are these: atp_concentration=90, read-out: % of control remaining.
Text: as §1

Sequence of JAK2(h) (O60674 whole entry): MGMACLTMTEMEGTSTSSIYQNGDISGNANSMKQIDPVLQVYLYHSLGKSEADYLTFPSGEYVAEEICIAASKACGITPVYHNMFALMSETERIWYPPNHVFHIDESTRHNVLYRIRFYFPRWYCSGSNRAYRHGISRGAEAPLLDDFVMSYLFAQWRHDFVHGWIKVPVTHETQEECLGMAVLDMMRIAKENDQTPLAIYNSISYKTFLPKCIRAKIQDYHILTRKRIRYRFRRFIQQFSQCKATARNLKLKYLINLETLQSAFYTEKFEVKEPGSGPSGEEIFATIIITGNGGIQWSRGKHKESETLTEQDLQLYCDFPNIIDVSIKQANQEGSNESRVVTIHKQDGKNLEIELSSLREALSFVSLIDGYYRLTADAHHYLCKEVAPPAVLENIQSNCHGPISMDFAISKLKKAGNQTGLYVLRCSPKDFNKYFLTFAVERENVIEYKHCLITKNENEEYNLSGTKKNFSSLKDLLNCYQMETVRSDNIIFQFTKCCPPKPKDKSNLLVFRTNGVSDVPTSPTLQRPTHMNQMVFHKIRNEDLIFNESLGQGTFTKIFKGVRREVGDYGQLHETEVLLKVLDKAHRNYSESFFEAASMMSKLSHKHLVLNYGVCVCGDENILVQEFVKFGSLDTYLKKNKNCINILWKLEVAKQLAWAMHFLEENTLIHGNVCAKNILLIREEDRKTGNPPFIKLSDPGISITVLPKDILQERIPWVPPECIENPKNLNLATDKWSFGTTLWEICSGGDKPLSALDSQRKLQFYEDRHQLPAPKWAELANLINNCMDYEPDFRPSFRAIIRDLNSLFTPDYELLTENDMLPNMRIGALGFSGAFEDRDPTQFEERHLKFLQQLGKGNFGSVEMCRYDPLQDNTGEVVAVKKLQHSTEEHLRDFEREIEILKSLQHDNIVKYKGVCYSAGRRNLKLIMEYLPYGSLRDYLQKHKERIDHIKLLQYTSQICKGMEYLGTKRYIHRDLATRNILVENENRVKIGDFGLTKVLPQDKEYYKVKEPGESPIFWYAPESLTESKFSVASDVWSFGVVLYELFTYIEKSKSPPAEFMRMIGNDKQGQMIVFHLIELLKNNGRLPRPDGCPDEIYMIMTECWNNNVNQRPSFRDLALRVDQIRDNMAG
Sequence of Plk3(h) (Q9H4B4 whole entry): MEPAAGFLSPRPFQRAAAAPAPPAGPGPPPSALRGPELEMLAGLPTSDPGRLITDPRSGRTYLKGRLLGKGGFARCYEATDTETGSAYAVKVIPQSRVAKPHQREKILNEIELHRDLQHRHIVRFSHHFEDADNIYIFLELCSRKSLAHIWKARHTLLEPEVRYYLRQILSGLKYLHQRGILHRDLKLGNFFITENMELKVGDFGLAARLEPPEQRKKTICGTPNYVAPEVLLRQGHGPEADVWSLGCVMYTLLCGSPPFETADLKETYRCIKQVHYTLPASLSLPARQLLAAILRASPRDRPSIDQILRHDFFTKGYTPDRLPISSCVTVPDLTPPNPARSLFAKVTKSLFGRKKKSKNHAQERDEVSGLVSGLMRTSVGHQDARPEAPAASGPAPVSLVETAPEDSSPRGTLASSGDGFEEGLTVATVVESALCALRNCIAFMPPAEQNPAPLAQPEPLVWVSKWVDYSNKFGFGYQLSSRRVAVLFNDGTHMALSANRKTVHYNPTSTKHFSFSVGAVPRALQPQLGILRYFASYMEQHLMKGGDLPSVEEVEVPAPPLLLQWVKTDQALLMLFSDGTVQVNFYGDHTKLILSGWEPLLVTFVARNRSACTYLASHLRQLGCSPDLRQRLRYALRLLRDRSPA
Sequence of CDK9/cyclin T1(h) (P50750 whole entry): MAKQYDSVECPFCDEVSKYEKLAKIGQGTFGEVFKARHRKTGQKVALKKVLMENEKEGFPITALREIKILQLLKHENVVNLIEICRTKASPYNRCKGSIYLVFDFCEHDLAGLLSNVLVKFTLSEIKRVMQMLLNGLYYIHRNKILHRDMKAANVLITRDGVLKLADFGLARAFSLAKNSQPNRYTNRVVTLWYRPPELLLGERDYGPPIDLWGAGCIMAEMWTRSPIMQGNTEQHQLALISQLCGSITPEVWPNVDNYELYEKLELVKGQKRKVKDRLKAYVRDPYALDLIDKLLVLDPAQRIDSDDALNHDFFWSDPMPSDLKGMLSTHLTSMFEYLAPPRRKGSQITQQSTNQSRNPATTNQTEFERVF
Sequence of CDK9/cyclin T1(h) (O60563 whole entry partner): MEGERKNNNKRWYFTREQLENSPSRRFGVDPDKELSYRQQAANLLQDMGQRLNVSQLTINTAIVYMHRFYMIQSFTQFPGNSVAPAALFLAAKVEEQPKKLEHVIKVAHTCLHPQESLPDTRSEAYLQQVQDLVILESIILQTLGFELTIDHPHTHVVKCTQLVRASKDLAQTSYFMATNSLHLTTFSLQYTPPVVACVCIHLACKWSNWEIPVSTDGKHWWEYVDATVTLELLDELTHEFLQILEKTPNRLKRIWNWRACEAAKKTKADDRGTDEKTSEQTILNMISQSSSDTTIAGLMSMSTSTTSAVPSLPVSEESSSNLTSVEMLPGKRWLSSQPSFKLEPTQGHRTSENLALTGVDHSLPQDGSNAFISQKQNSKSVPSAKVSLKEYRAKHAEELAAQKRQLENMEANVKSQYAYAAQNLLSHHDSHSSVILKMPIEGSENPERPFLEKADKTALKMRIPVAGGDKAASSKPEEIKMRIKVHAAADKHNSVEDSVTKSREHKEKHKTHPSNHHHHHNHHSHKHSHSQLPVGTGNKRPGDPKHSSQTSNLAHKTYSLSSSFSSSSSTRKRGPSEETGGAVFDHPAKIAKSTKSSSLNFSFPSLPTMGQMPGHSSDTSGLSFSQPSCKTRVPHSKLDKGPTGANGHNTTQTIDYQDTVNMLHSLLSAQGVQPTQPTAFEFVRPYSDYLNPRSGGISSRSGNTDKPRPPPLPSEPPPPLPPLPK

With `COc1ccc([C@@H](Cc2nnn[nH]2)NC(=O)c2ncnc3[nH]ccc23)cc1` [ASAP-0008340], the remaining activity at 10 µM was 96% at LOK(h) (batch_name=ASAP-0008340-001); 81% on p70S6K(h) (batch_name=ASAP-0008340-001); 96% on EGFR(h) (batch_name=ASAP-0008340-001); 97% on CDK2/cyclinA(h) (batch_name=ASAP-0008340-001); 102% at JAK2(h) (batch_name=ASAP-0008340-001); 102% at PDGFRβ(h) (batch_name=ASAP-0008340-001). Further, the remaining activity at 10 µM at CaMKI(h) (batch_name=ASAP-0008340-001) worked out at 100%; at CDK9/cyclin T1(h) (batch_name=ASAP-0008340-001), 117%; on CHK1(h) (batch_name=ASAP-0008340-001) it was 95%; on ALK(h) (batch_name=ASAP-0008340-001), 95%; in series [1] (batch_name=ASAP-0008340-001), 99%; on Plk3(h) (batch_name=ASAP-0008340-001), 102%. In addition, on KDR(h) (batch_name=ASAP-0008340-001), the remaining activity at 10 µM turned out to be 79%. The molecule also returned a logd in “LogD” (pH 7.4, In vitro LogD) of -0.1.
In the case of `Cc1nn(C)cc1-c1cc2c(NC(c3ccc4c(c3)S(=O)(=O)CCC4)C(C)C)ncnc2[nH]1` (centres unmarked) [ASAP-0011446], the remaining activity at 10 µM came to 93% at LOK(h) (batch_name=ASAP-0011446-002); 108% at p70S6K(h) (batch_name=ASAP-0011446-002); 87% at EGFR(h) (batch_name=ASAP-0011446-002); 107% on CDK2/cyclinA(h) (batch_name=ASAP-0011446-002); 111% on JAK2(h) (batch_name=ASAP-0011446-002); 97% at PDGFRβ(h) (batch_name=ASAP-0011446-002). Moreover, the remaining activity at 10 µM at CaMKI(h) (batch_name=ASAP-0011446-002) came out at 101%; at CDK9/cyclin T1(h) (batch_name=ASAP-0011446-002) it was 57%; at CHK1(h) (batch_name=ASAP-0011446-002), 102%; at ALK(h) (batch_name=ASAP-0011446-002), 99%; in series [1] (batch_name=ASAP-0011446-002) it was 101%; on Plk3(h) (batch_name=ASAP-0011446-002), 104%. Moreover, the remaining activity at 10 µM on KDR(h) (batch_name=ASAP-0011446-002) worked out at 88%. Besides, the logd in the series “LogD” and in “LogD” (pH 7.4) was 3.1 in each case.
`CNCc1cc(-c2cc3c(N[C@@H](c4ccc5c(c4)S(=O)(=O)CCC5)C(C)C)ncnc3[nH]2)co1` [ASAP-0011176]: the remaining activity at 10 µM on LOK(h) (batch_name=ASAP-0011176-002) came out at 92%; at p70S6K(h) (batch_name=ASAP-0011176-002) it was 110%; at EGFR(h) (batch_name=ASAP-0011176-002), 97%; at CDK2/cyclinA(h) (batch_name=ASAP-0011176-002), 98%; at JAK2(h) (batch_name=ASAP-0011176-002), 114%; at PDGFRβ(h) (batch_name=ASAP-0011176-002) it was 89%. In addition, the remaining activity at 10 µM is 87% on CaMKI(h) (batch_name=ASAP-0011176-002); 40% at CDK9/cyclin T1(h) (batch_name=ASAP-0011176-002); 111% on CHK1(h) (batch_name=ASAP-0011176-002); 99% at ALK(h) (batch_name=ASAP-0011176-002); 80% in series [1] (batch_name=ASAP-0011176-002); 124% on Plk3(h) (batch_name=ASAP-0011176-002). In addition, the remaining activity at 10 µM at KDR(h) (batch_name=ASAP-0011176-002) was 88%. The molecule further showed a logd in the series “LogD” (pH 7.4, In vitro LogD) of 2.2.
For `C[C@H](C(=O)O)[C@@H](NC(=O)c1ncnc2[nH]ccc12)c1ccc(Br)cc1` [ASAP-0014722], the remaining activity at 10 µM on LOK(h) (batch_name=ASAP-0014722-002) was determined as 97%; on p70S6K(h) (batch_name=ASAP-0014722-002) it was 97%; on EGFR(h) (batch_name=ASAP-0014722-002), 93%; on CDK2/cyclinA(h) (batch_name=ASAP-0014722-002), 102%; at JAK2(h) (batch_name=ASAP-0014722-002) it was 99%; on PDGFRβ(h) (batch_name=ASAP-0014722-002) it was 110%. Besides, the remaining activity at 10 µM at CaMKI(h) (batch_name=ASAP-0014722-002) was 101%; at CDK9/cyclin T1(h) (batch_name=ASAP-0014722-002), 103%; on CHK1(h) (batch_name=ASAP-0014722-002), 99%; on ALK(h) (batch_name=ASAP-0014722-002), 99%; in [1] (batch_name=ASAP-0014722-002), 97%; on Plk3(h) (batch_name=ASAP-0014722-002), 98%. The remaining activity at 10 µM on KDR(h) (batch_name=ASAP-0014722-002) turned out to be 77%. The logd in “LogD” (pH 7.4, In vitro LogD) turned out to be 0.6.
Regarding `CC(C)C(Nc1ncnc2[nH]ccc12)c1ccc2c(c1)S(=O)(=O)CCC2` (centres unmarked) [ASAP-0008327], the remaining activity at 10 µM was 104% at LOK(h) (batch_name=ASAP-0008327-001); 98% on p70S6K(h) (batch_name=ASAP-0008327-001); 102% on EGFR(h) (batch_name=ASAP-0008327-001); 96% at CDK2/cyclinA(h) (batch_name=ASAP-0008327-001); 110% on JAK2(h) (batch_name=ASAP-0008327-001); 99% on PDGFRβ(h) (batch_name=ASAP-0008327-001). The remaining activity at 10 µM at CaMKI(h) (batch_name=ASAP-0008327-001) came to 94%; on CDK9/cyclin T1(h) (batch_name=ASAP-0008327-001) it was 114%; on CHK1(h) (batch_name=ASAP-0008327-001) it was 84%; at ALK(h) (batch_name=ASAP-0008327-001), 93%; in series [1] (batch_name=ASAP-0008327-001) it was 101%; on Plk3(h) (batch_name=ASAP-0008327-001), 103%. In addition, at KDR(h) (batch_name=ASAP-0008327-001), the remaining activity at 10 µM amounted to 82%. In “LogD” (pH 7.4, logd, pH 7.4, In vitro LogD), this molecule returned a logd of 2.5.
